# US9790169B2, “IDO inhibitors” (BRISTOL-MYERS SQUIBB COMPANY, priority 2015, dated 2017)
# Biological target: human IDO1 (Homo sapiens, UniProt P14902)
# Test: Assessment of human IDO-1 inhibitory activity in HEK cells (human IDO1/HEK293 cells, kynurenine read-out with Ehrlich reagent, absorbance 490 nm)
# Type: cell-based
# Set-up: expressed in transfected cells
# Conditions: HEK Human IDO-1 cellular assay
# Outline: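 HEK293 cells stably expressing human IDO1 were seeded at 10,000 per well in phenol red-free RPMI with 10% FBS, treated with compound for 20 h at 37 °C. Kynurenine was measured after TCA (0.2% final) and 30 min at 50 °C, using Ehrlich reagent, A490. IC50 normalised to DMSO (0%) and 500 nM reference standard (100%).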
# Sequence of human IDO1 (P14902 whole entry): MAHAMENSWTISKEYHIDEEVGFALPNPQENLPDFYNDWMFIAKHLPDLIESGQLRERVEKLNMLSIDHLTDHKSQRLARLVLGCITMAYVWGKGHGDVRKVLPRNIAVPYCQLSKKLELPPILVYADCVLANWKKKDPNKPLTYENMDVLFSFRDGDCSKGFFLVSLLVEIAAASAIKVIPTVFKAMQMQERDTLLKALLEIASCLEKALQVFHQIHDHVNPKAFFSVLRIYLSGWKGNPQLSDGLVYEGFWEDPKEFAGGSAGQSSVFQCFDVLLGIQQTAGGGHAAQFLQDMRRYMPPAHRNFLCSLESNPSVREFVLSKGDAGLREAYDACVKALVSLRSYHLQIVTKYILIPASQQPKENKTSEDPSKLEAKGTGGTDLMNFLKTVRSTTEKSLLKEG
row,SMILES,IC50 [nM]
1,"C[C@@H]1CN(c2ccc(C(C)(C)CC(=O)O)cc2Nc2ccc(C#N)cc2)C[C@H](C)O1 [Example 731, 3-(3-((4-Cyanophenyl)amino)-4-((2S,6R)-2,6-dimethylmorpholino)phenyl)-3-methylbutanoic acid]",< 50
2,"COCC(CC(=O)O)c1ccc(N(CC2CC2)C2CCOCC2)c(Nc2ccc(C#N)c(C)c2)c1 (single isomer, unassigned) [Example 686, 3-(3-((4-cyano-3-methylphenyl)amino)-4-((cyclopropylmethyl) (tetrahydro-2H-pyran-4-yl)amino)phenyl)-4-methoxybutanoic acid]",< 5
3,"CCOc1ncc(Nc2cc(C(C)(C)CC(=O)O)ccc2N(CC)C2CCC(C)(O)CC2)cn1 (stereo not drawn) [Example 3, 3-(3-((2-ethoxypyrimidin-5-yl)amino)-4-(ethyl(4-hydroxy-4-methylcyclohexyl)amino)phenyl)-3-methylbutanoic acid]",> 50
4,"COCC(CC(=O)O)c1ccc(N(CC(C)C)C2CCOCC2)c(NC(=O)Nc2ccc(Cl)cc2F)c1 (single isomer, unassigned) [Example 1217, 3-(3-(3-(4-Chloro-2-fluorophenyl)ureido)-4-(isobutyl(tetrahydro-2H-pyran-4-yl)amino)phenyl)-4-methoxybutanoic acid]",< 5
5,"CCCN(c1ccc(C(CC)CC(=O)O)cc1NC(=O)Nc1cnc(C)nc1)C1CCOCC1 (racemic) [Example 610, 3-(3-(3-(2-methylpyrimidin-5-yl)ureido)-4-(propyl(tetrahydro-2H-pyran-4-yl)amino)phenyl)pentanoic acid]",> 50
6,"COCC(CC(=O)O)c1cc(F)c(N(CC(C)C)CC(C)C)c(NC(=O)Cc2ccc(Cl)cc2F)c1 (single isomer, unassigned) [Example 1180, 3-(3-(2-(4-Chloro-2-fluorophenyl)acetamido)-4-(diisobutylamino)-5-fluorophenyl)-4-methoxybutanoic acid]",< 5
7,"COCC(CC(=O)O)c1ccc(N(CC(C)C)C2CCCCC2)c(NC(=O)Nc2ccc(OC)cc2F)c1 (single isomer, unassigned) [Example 1233, 3-(4-(Cyclohexyl(isobutyl)amino)-3-(3-(2-fluoro-4-methoxyphenyl)ureido)phenyl)-4-methoxybutanoic acid]",< 5
8,"CC[C@@H](CC(=O)O)c1ccc(N(CC)C2CCOCC2)c(Nc2ccn3nc(C)c(F)c3c2)c1 (single isomer, unassigned) [Example 470]",< 50
9,"CC(C)(CC(=O)O)c1ccc(N2CCC[C@H]2C(C)(C)O)c(Nc2ccc(F)cc2)c1 [Example 807, (S)-3-(3-((4-Fluorophenyl)amino)-4-(2-(2-hydroxypropan-2-yl)pyrrolidin-1-yl)phenyl)-3-methylbutanoic acid]",> 50
10,"CC(CC(=O)O)c1ccc(N(CC(C)(C)O)C2CCOCC2)c(Nc2ccc(Cl)cc2)c1 (single isomer, unassigned) [Example 195, 3-(3-((4-Chlorophenyl)amino)-4-((2-hydroxy-2-methylpropyl)(tetrahydro-2H-pyran-4-yl)amino)phenyl)butanoic acid]",< 5
11,"CCC(CC(=O)O)c1ccc(N2CCC[C@H]2C(C)(C)O)c(NC(=O)Nc2ccc(OC)cc2F)c1 (single isomer, unassigned) [Example 814]",> 50
12,"CCN(c1ccc(C(C)CC(=O)O)cc1NC(=O)Nc1ccc(Cl)cc1F)C1CCOCC1 (single isomer, unassigned) [Example 637 E1, 3-(3-(3-(4-Chloro-2-fluorophenyl)ureido)-4-(ethyl(tetrahydro-2H-pyran-4-yl)amino)phenyl)butanoic acid]",< 5
13,"CC[C@@H](CC(=O)O)c1ccc(N(CC(C)(C)O)C2CCCCC2)c(Nc2ccc(F)cc2)c1 (single isomer, unassigned) [Example 225]",< 5
14,"CCCN(c1ccc(C(CC)CC(=O)O)cc1Nc1ncc(CC)cn1)C1CCOCC1 (racemic) [Example 611, 3-(3-((5-Ethylpyrimidin-2-yl)amino)-4-(propyl(tetrahydro-2H-pyran-4-yl)amino)phenyl)pentanoic acid]",< 50
15,"COCC(CC(=O)O)c1ccc(N(CC2CC2)C2CCOCC2)c(Nc2ccc(Cl)cc2)c1 (single isomer, unassigned) [Example 679, 3-(3-((4-Chlorophenyl)amino)-4-((cyclopropylmethyl)(tetrahydro-2H-pyran-4-yl)amino)phenyl)-4-methoxybutanoic acid]",< 5
16,"COCC(CC(=O)O)c1cc(F)c(N(CC(C)C)C2CCCCC2)c(NC(=O)Nc2ccc(Cl)cc2F)c1 (single isomer, unassigned) [Example 1156, 3-(3-(3-(4-chloro-2-fluorophenyl)ureido)-4-(cyclohexyl(isobutyl)amino)-5-fluorophenyl)-4-methoxybutanoic acid]",< 5
17,"CC[C@@H](CC(=O)O)c1ccc(N(CC)C2CCOCC2)c(Nc2ccc(OC)nc2)c1 (single isomer, unassigned) [Example 478]",< 5
18,"CCCN(c1ccc([C@@H](CC)CC(=O)O)cc1Nc1cnc(OCC)nc1)C1CCOCC1 (single isomer, unassigned) [Example 535]",< 5
19,"CCCN(c1ccc([C@@H](COC)CC(=O)O)cc1Nc1ccc2c(c1)OC(F)(F)O2)C1CCOCC1 (single isomer, unassigned) [Example 561]",> 50
20,"CCC(CC(=O)O)c1cc(F)c(N(CC(C)C)CC(C)C)c(NC(=O)Nc2cc(C(F)(F)F)ccc2F)c1 (racemic) [Example 976, (+/−)-3-(4-(diisobutylamino)-3-fluoro-5-(3-(2-fluoro-5-(trifluoromethyl)phenyl)ureido)phenyl)pentanoic acid]",< 50
21,"CC(CC(=O)O)c1ccc(N(CC(C)(C)O)C2CCCCC2)c(Nc2ccc3c(c2)OC(F)(F)O3)c1 (single isomer, unassigned) [Example 53, 3-(4-(cyclohexyl(2-hydroxy-2-methylpropyl)amino)-3-((2,2-difluorobenzo[d][1,3]dioxol-5-yl)amino)phenyl)butanoic acid]",< 5
22,"CCc1ccc(Nc2cc(C(CC)CC(=O)O)ccc2N2CCC[C@H]2C(C)(C)O)cc1 (single isomer, unassigned) [Example 819]",> 50
23,"CCCN(c1ccc([C@@H](CC)CC(=O)O)cc1Nc1ccc(F)cc1)C1CCOCC1 (single isomer, unassigned) [Example 538]",< 5
24,"CC(C)CN(CC(C)C)c1ccc(C(C)(C)CC(=O)O)cc1Nc1ccc2c(c1)OC(F)(F)O2 [Example 147, 3-(3-((2,2-difluorobenzo[d][1,3]dioxol-5-yl)amino)-4-(diisobutylamino)phenyl)-3-methylbutanoic acid]",< 50
25,"CC[C@@H](CC(=O)O)c1ccc(N(CC)C2CCOCC2)c(Nc2cnc(OCC3CC3)nc2)c1 (single isomer, unassigned) [Example 480]",< 5
26,"CC(CC(=O)O)c1ccc(N(CC(C)(C)O)C2CCCCC2)c(Nc2ccc(Cl)c(OCC(F)(F)F)c2)c1 (single isomer, unassigned) [Example 51, 3-(3-((4-chloro-3-(2,2,2-trifluoroethoxy)phenyl)amino)-4-(cyclohexyl(2-hydroxy-2-methylpropyl)amino)phenyl)butanoic acid]",> 50
27,"CCOc1ccc(Nc2cc([C@@H](CC)CC(=O)O)ccc2N(CC(C)(C)O)C2CCOCC2)c(F)c1 (single isomer, unassigned) [Example 201]",< 50
